Data on seven compounds can be found in patent publication US20080021217A1, “HETEROCYCLIC INHIBITORS OF RHO KINASE” (priority 2006, published 2008).

pIC50: −log10 of the molar value. Counter-ions that a name gives are not always drawn.

In assay [1] the test system is lasered (hypertensive) eyes of conscious cynomolgus monkeys. The experiment in a line: Acute IOP response in lasered (hypertensive) eyes of conscious cynomolgus monkeys. Format: in vivo. The conditions noted are these: instilled in right eyes, IOP at 1, 3 and 6 hours; for Peak % Reduction in IOP vs. Control at 1.0%: compound at 1.0%; for Peak % Reduction in IOP vs. Control at 0.3%: compound at 0.3%. The source says:
Acute IOP Response in Lasered (Hypertensive) Eyes of Conscious Cynomolgus Monkeys
Intraocular pressure (IOP) can be determined with an Alcon Pneumatonometer after light corneal anesthesia with 0.1% proparacaine. Eyes are washed with saline after each measurement. After a baseline IOP measurement, test compound is instilled in one […] aliquot to the right eyes only of nine cynomolgus monkeys. Vehicle is instilled in the right eyes of six additional animals. Subsequent IOP measurements are taken at 1, 3, and 6 hours, and peak reduction in IOP is reported below in Table 2 as percent of IOP lowering versus the control for each of the given concentrations of compound.
A more detailed description of the assay used herein may be found in May et al., “Evaluation of the Ocular Hypotensive Response of Serotonin 5-HT1A and 5-HT2 Receptor Ligands in Conscious Ocular Hypertensive Cynomolgus Monkeys,” J. of Pharmacology and Experimental Therapeutics, vol. 306(1), pp. 301-309 (2003), the disclosure of which is hereby incorporated by reference as if written herein in its entirety.

Assay [2] addresses T1, recombinant N-terminal GST-tagged human Rho kinase 2 (ROCK2, amino acids 1-552) (Homo sapiens, UniProt O75116).
T1 construct: ROCK2, amino acids 1-552, Invitrogen Inc., cat #PV3759; GST (N); purchased Invitrogen Inc. PV3759
As to the kind of experiment: In vitro Rho kinase assay (luciferase-based ATP consumption), ROCK2. Format: biochemical.

Assay [3] deals with T2, recombinant N-terminal GST-tagged human Rho kinase 1 (ROCK1, amino acids 1-535) (Homo sapiens, UniProt Q13464).
T2 construct: ROCK1, amino acids 1-535, Invitrogen Inc., cat. #PV-3691; GST (N); purchased Invitrogen Inc. PV-3691
As to the kind of experiment: In vitro Rho kinase assay (luciferase-based ATP consumption), ROCK1. It is filed as biochemical.

T2 sequence (Q13464 1-535): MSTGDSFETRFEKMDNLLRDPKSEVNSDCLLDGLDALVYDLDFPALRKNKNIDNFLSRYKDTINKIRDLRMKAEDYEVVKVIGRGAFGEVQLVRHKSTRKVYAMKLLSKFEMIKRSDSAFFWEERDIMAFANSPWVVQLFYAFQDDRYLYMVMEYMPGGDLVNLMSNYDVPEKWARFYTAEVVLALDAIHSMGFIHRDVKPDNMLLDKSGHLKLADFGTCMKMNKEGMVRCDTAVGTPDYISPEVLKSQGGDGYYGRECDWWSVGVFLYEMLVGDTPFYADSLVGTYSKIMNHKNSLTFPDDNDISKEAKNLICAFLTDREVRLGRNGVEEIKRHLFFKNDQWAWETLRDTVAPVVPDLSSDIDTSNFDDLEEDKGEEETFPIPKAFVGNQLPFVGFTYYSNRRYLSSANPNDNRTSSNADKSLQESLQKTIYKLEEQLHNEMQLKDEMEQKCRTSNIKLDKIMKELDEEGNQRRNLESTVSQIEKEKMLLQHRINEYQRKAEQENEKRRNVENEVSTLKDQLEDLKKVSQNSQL
T1 sequence (O75116 1-552): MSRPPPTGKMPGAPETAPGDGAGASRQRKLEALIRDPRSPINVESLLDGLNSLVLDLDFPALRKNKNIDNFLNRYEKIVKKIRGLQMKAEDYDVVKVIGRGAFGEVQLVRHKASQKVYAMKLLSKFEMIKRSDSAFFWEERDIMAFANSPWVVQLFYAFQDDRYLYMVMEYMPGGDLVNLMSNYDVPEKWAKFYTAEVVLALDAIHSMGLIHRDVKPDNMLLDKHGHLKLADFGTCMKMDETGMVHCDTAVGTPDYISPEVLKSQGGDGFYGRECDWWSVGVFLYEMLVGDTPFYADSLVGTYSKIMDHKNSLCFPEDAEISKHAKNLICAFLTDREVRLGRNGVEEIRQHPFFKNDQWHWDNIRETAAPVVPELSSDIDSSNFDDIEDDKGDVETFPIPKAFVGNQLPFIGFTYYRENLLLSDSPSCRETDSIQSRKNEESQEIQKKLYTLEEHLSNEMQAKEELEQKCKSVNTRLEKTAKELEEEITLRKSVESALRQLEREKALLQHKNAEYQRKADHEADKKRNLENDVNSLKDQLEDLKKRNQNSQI

Take `O=C(NCc1nc(-c2ccncc2)n[nH]1)c1ccc(O)cc1O` [Ex. 15 HCl, 2,4-dihydroxy-N-((3-(pyridin-4-yl)-1H-1,2,4-triazol-5-yl)methyl)benzamide]: the “Peak % Reduction in IOP vs. Control at 1.0%” value in assay [1] is 8.8%.
Take `O=C(NCc1nc(-c2ccncc2)c[nH]1)c1ccc(O)cc1O` [Example 6, 2,4-dihydroxy-N-((4-(pyridin-4-yl)-1H-imidazol-2-yl)methyl)benzamide]: the “Peak % Reduction in IOP vs. Control at 0.3%” value (“Peak % Reduction … at 0.3%” below) in assay [1] came out at 5.8%. In addition, the negative logarithm of the IC50 (pIC50) in assay [2] and in assay [3] was over 5.30 in each case.
`Cc1cccc(C(=O)NCc2nc(-c3ccncc3)c[nH]2)c1O` [Example 7, 2-hydroxy-3-methyl-N-((4-(pyridin-4-yl)-1H-imidazol-2-yl)methyl)benzamide]: the “Peak % Reduction … at 0.3%” value in assay [1] worked out at 11.0%. Besides, the negative logarithm of the IC50 (pIC50) in assay [2] and in assay [3] was over 5.30 in each case.
Turning to `O=C(NCc1nc(-c2ccncc2)n[nH]1)c1ccc(O)cc1O` [Example 15, 2,4-dihydroxy-N-((3-(pyridin-4-yl)-1H-1,2,4-triazol-5-yl)methyl)benzamide], in assay [1], the “Peak % Reduction … at 0.3%” value is recorded as 14.9% and the “Peak % Reduction in IOP vs. Control at 1.0%” value stood at 9.8%. In assay [2], the negative logarithm of the IC50 (pIC50) was over 5.30. Besides, in assay [3], the pIC50 was over 5.30.
On to `Cc1cccc(C(=O)NCc2nc(-c3ccncc3)n[nH]2)c1O` [Example 22, 2-hydroxy-3-methyl-N-((3-(pyridin-4-yl)-1H-1,2,4-triazol-5-yl)methyl)benzamide], for which, in assay [1], the “Peak % Reduction … at 0.3%” value was 11.1%. Further, the pIC50 in assay [2] and in assay [3] was over 5.30 in each case.
On to `CC(C)C(=O)Oc1ccc(C(=O)NCc2nc(-c3ccncc3)n[nH]2)c(O)c1` [Example 35, 3-Hydroxy-4-((3-(pyridin-4-yl)-1H-1,2,4-triazol-5-yl)methylcarbamoyl)phenyl isobutyrate], for which the “Peak % Reduction … at 0.3%” value in assay [1] is reported as 8.6%. The negative logarithm of the IC50 (pIC50) in assay [2] and in assay [3] was over 5.30 each time.
As to `CC(=O)Oc1ccc(C(=O)NCc2nc(-c3ccncc3)n[nH]2)c(O)c1` [Example 36, 3-Hydroxy-4-((3-(pyridin-4-yl)-1H-1,2,4-triazol-5-yl)methylcarbamoyl)phenyl acetate], in assay [1], the “Peak % Reduction … at 0.3%” value stood at 8.4%. Further, the negative logarithm of the IC50 (pIC50) in assay [2] and in assay [3] was over 5.30 each time.
